Test [1] has as its target T1, PEDV Mpro (main protease, 3CL protease) (Porcine epidemic diarrhea virus CV777, UniProt P0C6Y4).
T1 construct: gene rep; mature nsp5 main protease cut from replicase polyprotein 1a/1ab; recombinant N-terminal GST fusion, GST tag removed with PreScission protease; expression as in Li et al., 2020; PDB 4XFQ only for docking
T1 sequence (P0C6Y4 2998-3299 limits assumed): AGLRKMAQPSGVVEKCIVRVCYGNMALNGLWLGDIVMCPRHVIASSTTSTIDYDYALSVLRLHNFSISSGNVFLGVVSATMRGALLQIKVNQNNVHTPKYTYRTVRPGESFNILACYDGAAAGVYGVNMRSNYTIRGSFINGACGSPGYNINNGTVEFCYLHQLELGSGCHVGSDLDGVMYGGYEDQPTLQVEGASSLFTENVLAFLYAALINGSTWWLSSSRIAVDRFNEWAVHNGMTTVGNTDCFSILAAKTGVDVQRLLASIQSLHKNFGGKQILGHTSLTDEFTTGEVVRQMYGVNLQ
In words: surface plasmon resonance (OpenSPR), Mpro immobilised. It counts as binding. To be noted: read-out: KD (affinity constant). On the technique in general: SPR reads the build-up and loss of mass on a sensor chip optically.

Test [2] concerns the target T1, PEDV Mpro (main protease, 3CL protease). In words: FRET inhibition assay. In kind it is biochemical.

One may read the Kd as a measure of binding affinity in units of concentration. As a reminder, the IC50 is the concentration that inhibits the measured activity by half. The low end stands for higher potency, the high end for lower potency. In the case of `COc1c(O)cc(O)c2c(=O)cc(-c3ccccc3)oc12` [wogonin], in test [1], the Kd is 16 µM. In addition, half-maximal inhibition in test [2] (IC50) required 19.4 µM.

(Values after PMC10050881.)
